Reference: patent publication US20150218212A1, “FLUORINATED EPOXYKETONE-BASED TETRAPEPTIDE COMPOUNDS AND USES THEREOF AS PROTEASOME INHIBITORS” (FLUORINOV PHARMA INC., priority 2012, published 2015)

How the values were obtained:
Assay type in all cases: cell-based, human
[1] = system: DU-145; assay: NCI screening panel, DU-145 (Prostate Cancer)
Experimental: (§1) Representative compounds of Formula I were screened using the National Cancer Institute (NCI) screening panel, which consists of a panel of human tumor cell lines, representing leukemia, melanoma, and cancers of the lung, colon, ovary, breast, prostate and renal system.
(§2) After 24 h, two plates of each cell line are fixed in situ with TCA, to represent a measurement of the cell population for each cell line at the time of drug addition (Tz). Experimental drugs are solubilised in dimethyl sulfoxide at 400-fold the desired final maximum test concentration and stored frozen prior to use. At the time of drug addition, an aliquot of frozen concentrate is thawed and diluted to twice the desired final maximum test concentration with complete medium containing 50 μg/mL gentamicin. Additional four, 10-fold or ½ log serial dilutions are made to provide a total of five drug concentrations plus control. Aliquots of 100 μl of these different drug dilutions are added to the appropriate microtiter wells already containing 100 μl of medium, resulting in the required final drug concentrations.
(§3) Following drug addition, the plates are incubated for an additional 48 h at 37° C., 5% CO2, 95% air, and 100% relative humidity. For adherent cells, the assay is terminated by the addition of cold TCA (trichloroacetic acid). Cells are fixed in situ by the gentle addition of 50 μl of cold 50% (w/v) TCA (final concentration, 10% TCA) and incubated for 60 minutes at 4° C. The supernatant is discarded, and the plates are washed five times with tap water and air dried. Sulforhodamine B (SRB) solution (100 μl) at 0.4% (w/v) in 1% acetic acid is added to each well, and plates are incubated for 10 minutes at room temperature. After staining, unbound dye is removed by washing five times with 1% acetic acid and the plates are air dried. Bound stain is subsequently solubilised with 10 mM trizma base, and the absorbance is read on an automated plate reader at a wavelength of 515 nm. For suspension cells, the methodology is the same except that the assay is terminated by fixing settled cells at the bottom of the wells by gently adding 50 μl of 80% TCA (final concentration, 16% TCA). Using the seven absorbance measurements [time zero, (Tz), control growth, (C), and test growth in the presence of drug at the five concentration levels (Ti)], the percentage growth is calculated at each of the drug concentrations levels. Percentage growth inhibition is calculated as: [(Ti−Tz)/(C−Tz)]×100 for concentrations for which Ti>/=Tz and [(Ti−Tz)/Tz]×100 for concentrations for which Ti<Tz.
(§4) Three dose response parameters are calculated for each experimental agent. Growth inhibition of 50% (GI50) is calculated from [(Ti−Tz)/(C−Tz)]×100=50, which is the drug concentration resulting in a 50% reduction in the net protein increase (as measured by SRB staining) in control cells during the drug incubation. The drug concentration resulting in total growth inhibition (TGI) is calculated from Ti=Tz. The LC50 (concentration of drug resulting in a 50% reduction in the measured protein at the end of the drug treatment as compared to that at the beginning) indicating a net loss of cells following treatment is calculated from [(Ti−Tz)/Tz]×100=−50. Values are calculated for each of these three parameters if the level of activity is reached. However, if the effect is not reached or is exceeded, the value for that parameter is expressed as greater or less than the maximum or minimum concentration tested.

[2] = system: OVCAR-8; assay: NCI screening panel, OVCAR-8 (Ovarian Cancer)
Experimental: as §1, §2, §3, §4

[3] = system: MALME-3M; assay: NCI screening panel, MALME-3M (Melanoma)
Experimental: as §1, §2, §3, §4

[4] = system: UO-31; assay: NCI screening panel, UO-31 (Renal Cancer)
Experimental: as §1, §2, §3, §4

[5] = system: PC-3; assay: NCI screening panel, PC-3 (Prostate Cancer)
Experimental: as §1, §2, §3, §4

[6] = system: HCC-2998; assay: NCI screening panel, HCC-2998 (Colon Cancer)
Experimental: as §1, §2, §3, §4

[7] = system: NCI-H322M; assay: NCI screening panel, NCI-H322M (Non-Small Cell Lung Cancer)
Experimental: as §1, §2, §3, §4

[8] = system: UACC-62; assay: NCI screening panel, UACC-62 (Melanoma)
Experimental: as §1, §2, §3, §4

[9] = system: SF-295; assay: NCI screening panel, SF-295 (CNS Cancer)
Experimental: as §1, §2, §3, §4

[10] = system: SNB-19; assay: NCI screening panel, SNB-19 (CNS Cancer)
Experimental: as §1, §2, §3, §4

[11] = system: OVCAR-3; assay: NCI screening panel, OVCAR-3 (Ovarian Cancer)
Experimental: as §1, §2, §3, §4

[12] = system: SK-MEL-5; assay: NCI screening panel, SK-MEL-5 (Melanoma)
Experimental: as §1, §2, §3, §4

[13] = system: COLO 205; assay: NCI screening panel, COLO 205 (Colon Cancer)
Experimental: as §1, §2, §3, §4

[14] = system: ACHN; assay: NCI screening panel, ACHN (Renal Cancer)
Experimental: as §1, §2, §3, §4

[15] = system: SF-539; assay: NCI screening panel, SF-539 (CNS Cancer)
Experimental: as §1, §2, §3, §4

CC(C)C[C@H](NC(=O)[C@H](COC(F)F)NC(=O)CN1CCOCC1)C(=O)N[C@@H](COC(F)F)C(=O)N[C@@H](Cc1ccccc1)C(=O)[C@@]1(C)CO1 [Example 4, (2S)-N-[(1S)-2-[[(1S)-1-benzyl-2-[(2R)-2-methyloxiran-2-yl]-2-oxo-ethyl]amino]-1-(difluoromethoxymethyl)-2-oxo-ethyl]-2-[[(2S)-3-(difluoromethoxy)-2-[(2-mor-pholinoacetyl)amino]propanoyl]amino]-4 methyl-pentanamide]
Log10GI50 [1]: −7.19
Log10LC50 [1]: >−4.00
Log10TGI50 [1]: −4.91
Log10GI50 [2]: −6.67
Log10LC50 [2]: >−4.00
Log10TGI50 [2]: −5.89
Log10GI50 [3]: −7.49
Log10LC50 [3]: >−4.00
Log10TGI50 [3]: −6.38
Log10GI50 [4]: −5.77
Log10LC50 [4]: −4.22
Log10TGI50 [4]: −5.24
Log10GI50 [5]: −7.18
Log10LC50 [5]: −4.68
Log10TGI50 [5]: −6.40
Log10GI50 [6]: −7.29
Log10LC50 [6]: −6.30
Log10TGI50 [6]: −6.75
Log10GI50 [7]: −6.73
Log10LC50 [7]: −4.18
Log10TGI50 [7]: −5.81
Log10GI50 [8]: −7.39
Log10LC50 [8]: −4.67
Log10TGI50 [8]: −6.59
Log10GI50 [9]: −7.48
Log10LC50 [9]: −5.22
Log10TGI50 [9]: −6.60
Log10GI50 [10]: −7.14
Log10LC50 [10]: >−4.00
Log10TGI50 [10]: >−4.00
Log10GI50 [11]: −7.43
Log10LC50 [11]: −6.11
Log10TGI50 [11]: −6.89
Log10GI50 [12]: −7.33
Log10LC50 [12]: −5.71
Log10TGI50 [12]: −6.60
Log10GI50 [13]: −7.25
Log10LC50 [13]: −4.46
Log10TGI50 [13]: −6.28
Log10GI50 [14]: −6.32
Log10LC50 [14]: >−4.00
Log10TGI50 [14]: >−4.00
Log10GI50 [15]: −7.64
Log10LC50 [15]: −5.26
Log10TGI50 [15]: −7.22

CC(C)C[C@H](NC(=O)[C@H](COC(F)F)NC(=O)[C@H](COC(F)F)NC(=O)[C@H](CCc1ccccc1)NC(=O)CN1CCOCC1)C(=O)[C@@]1(C)CO1 [Example 7, (2S)-N-[(1S)-1-(difluoromethoxymethyl)-2-[[(1S)-1-(difluoromethoxymethyl)-2-[[(1S)-3-methyl-1-[(2R)-2-methyloxirane-2-carbo-nyl]butyl]amino]-2-oxo-ethyl]amino]-2-oxo-ethyl]-2-[(2-morpholinoacetyl)amino]-4-phenyl-butanamide]
Log10GI50 [1]: −7.42
Log10LC50 [1]: >−4.00
Log10TGI50 [1]: −4.75
Log10GI50 [2]: −6.94
Log10LC50 [2]: >−4.00
Log10TGI50 [2]: −5.93
Log10GI50 [3]: −7.39
Log10LC50 [3]: >−4.00
Log10TGI50 [3]: −6.75
Log10GI50 [4]: −5.97
Log10LC50 [4]: −4.70
Log10TGI50 [4]: −5.45
Log10GI50 [5]: −7.49
Log10LC50 [5]: −5.41
Log10TGI50 [5]: −6.86
Log10GI50 [6]: −7.60
Log10LC50 [6]: −6.55
Log10TGI50 [6]: −7.21
Log10GI50 [7]: −7.04
Log10LC50 [7]: −4.81
Log10TGI50 [7]: −6.35
Log10GI50 [8]: −7.49
Log10LC50 [8]: −4.37
Log10TGI50 [8]: −6.73
Log10GI50 [9]: −7.60
Log10LC50 [9]: −6.15
Log10TGI50 [9]: −6.97
Log10GI50 [10]: −7.14
Log10LC50 [10]: >−4.00
Log10TGI50 [10]: >−4.00
Log10GI50 [11]: −7.64
Log10LC50 [11]: −6.40
Log10TGI50 [11]: −7.24
Log10GI50 [12]: −7.55
Log10LC50 [12]: −6.35
Log10TGI50 [12]: −6.99
Log10GI50 [13]: −7.23
Log10LC50 [13]: >−4.00
Log10TGI50 [13]: −5.89
Log10GI50 [14]: −6.31
Log10LC50 [14]: >−4.00
Log10TGI50 [14]: >−4.00
Log10GI50 [15]: −7.74
Log10LC50 [15]: −4.26
Log10TGI50 [15]: −7.20

CC(C)C[C@H](NC(=O)[C@H](Cc1ccccc1)NC(=O)[C@H](COC(F)F)NC(=O)[C@H](COC(F)F)NC(=O)CN1CCOCC1)C(=O)[C@@]1(C)CO1 [Example 11, (2S)-2-[[(2S)-3-(difluoromethoxy)-2-[[(2S)-3-(difluoromethoxy)-2-[(2-morpholinoacetyl)-amino]propanoyl]amino]propanoyl]amino]-N-[(1S)-3-methyl-1-[(2R)-2-methyloxirane-2-carbonyl]butyl]-3-phenyl-propanamide]
Log10GI50 [1]: −7.31
Log10LC50 [1]: >−4.00
Log10TGI50 [1]: −5.94
Log10GI50 [2]: −6.94
Log10LC50 [2]: >−4.00
Log10TGI50 [2]: >−4.00
Log10GI50 [3]: −7.14
Log10LC50 [3]: >−4.00
Log10TGI50 [3]: −6.30
Log10GI50 [4]: −6.17
Log10LC50 [4]: −4.24
Log10TGI50 [4]: −5.47
Log10GI50 [5]: −7.32
Log10LC50 [5]: >−4.00
Log10TGI50 [5]: −6.51
Log10GI50 [6]: −7.66
Log10LC50 [6]: −6.95
Log10TGI50 [6]: −7.33
Log10GI50 [7]: −6.85
Log10LC50 [7]: −4.06
Log10TGI50 [7]: −6.03
Log10GI50 [8]: −7.52
Log10LC50 [8]: >−4.00
Log10TGI50 [8]: −6.73
Log10GI50 [9]: −5.96
Log10LC50 [9]: −5.17
Log10TGI50 [9]: −5.56
Log10GI50 [10]: −7.20
Log10LC50 [10]: >−4.00
Log10TGI50 [10]: >−4.00
Log10GI50 [11]: −7.66
Log10LC50 [11]: −6.82
Log10TGI50 [11]: −7.31
Log10GI50 [12]: −7.45
Log10LC50 [12]: −6.23
Log10TGI50 [12]: −6.83
Log10GI50 [13]: −7.21
Log10LC50 [13]: >−4.00
Log10TGI50 [13]: −5.31
Log10GI50 [14]: −6.40
Log10LC50 [14]: >−4.00
Log10TGI50 [14]: >−4.00
Log10GI50 [15]: −7.66
Log10LC50 [15]: −5.48
Log10TGI50 [15]: −7.21
